# Laboratory results as given in US8710233B2 (Gruenenthal GmbH, priority 2005, dated 2014).
# Where two headings read alike, the source gives them in different places.
# How the values were obtained:
# [1] = system: formaldehyde induced nociceptive behaviour; assay: Formaldehyde test in mice, second (late) phase; format: in vivo, mouse; settings: for inhibition in vivo at 0.3 mg/kg / inhibition in vivo at 1 mg/kg / inhibition in vivo at 0.1 mg/kg: read-out: inhibition formaldehyde test (n = 10)
# [2] = system: capsaicin induced hypothermie; assay: Hypothermie assay in the mouse (capsaicin induced hypothermie); format: in vivo; settings: read-out: inhibition hypothermie (n = 5); for inhibition in vivo at 0.3 mg/kg: 0.3 mg/kg body weight po
# Description: V. Hypothermie Assay an der Maus
# Male NMRI mice (weight 25-35 gram, supplier IFFA CREDO, Bruxelles, Belgium) are used in the hypothermie assay. The animals are kept under standardized conditions: light/darkness interval (6:00 to 18:00 light; 18:00 to 6:00 Uhr darkness), room temperature 19-22° C., relative humidity 35-70%, 15 times per hour change of compartment air, airflow <0.2 m/sec. The animals were fed on a standardized diet (ssniff diet, ssniff Spezialdiäten GmbH, Soest, Germany) and tap water. Water and diet were detracted during the experiment. All animals were used once in the experiment. The animals were allowed to adapt to the experimental conditions for at least 5 days.
# The acute application of capsaicin (VR-1 agonist) leads to a decrease of the core body temperature in rat and mice via stimulation of heat sensors. Only compounds which act as specific VR-1-receptor antagonists can antagonize the capsaicin induced hypothermie. In contrast, morphine induced hypothermie is not antagonized by VR-1 antagonists. Thus, this experiment is suitable for the determination of compounds that act as VR1-antagonists via their effect on the core body temperature.
# For the determination of the core body temperature a digital thermometer was used (Thermalert TH-5, physitemp, Clifton N.J., USA). The measuring head was inserted into the rectum.
# The individual basis value is determined by measuring the body temperature twice in an interval of about half an hour. […] […] The test compound is given 10 min (i.v.) or 15 min (p.o.), respectively, before application of capsaicin. The body temperature is determined 7.5/15 and 30 min after application of capsaicin (i.v.+i.p.) or 15/30/60/90/120 min after application of capsaicin (p.o.+i.p.), respectively. In addition, another group of mice is only given the test compound or a vehicle control.
# The measuring points are given as average values±S.E.M. of the absolute values. The antagonistic effect is given in percent of inhibition of capsaicin induced hypothermie.
# [3] = molecular target: T1, vanilloid receptor 1 (VR1/TRPV1) of the rat species (Rattus norvegicus, UniProt O35433); assay: FLIPR Ca2+ influx assay on rat dorsal root ganglia cells (pharmacological method I); format: cell-based
# T1 construct: The spinal column is removed from decapitated rats; from tissue; host or cells: primary cells dissociated from rat dorsal root ganglia
# How it was run: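 Primary rat dorsal root ganglion cells loaded with 2 μM Fluo-4, Ca2+ influx read on FLIPR as peak fluorescence. Triplicates, at least 3 independent experiments.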
# vanilloid receptor (VR1) = molecular target: T2, vanilloid receptor (VR1) (Homo sapiens, UniProt Q8NER1); assay: FLIPR Ca2+ influx assay on CHO K1 cells transfected with the VR1 gene (pharmacological method II); format: cell-based
# T2 construct: expressed in transfected cells; host or cells: CHO K1 cells (ECACC), stably transfected
# VR1/TRPV1 receptor = VR1/TRPV1 receptor (Homo sapiens, UniProt Q8NER1); assay: IC50 (human) after pH stimulus; format: cell-based
# [4] = 0.3 mg/kg body weight po, mouse
# [5] = table 4, capsaicin, read-out: Ki (human) Cap.
# [6] = Table 2, displacement of capsaicin (100 nM), Cheng-Prusoff, read-out: Ki (human)
# [7] = table 4, capsaicin, read-out: Ki (rat) Cap.
# [8] = Table 2, displacement of capsaicin (100 nM), Cheng-Prusoff, read-out: Ki (rat)
# [9] = 0.1 mg/kg body weight po, mouse
# Chain of VR1/TRPV1 receptor (Q8NER1 whole entry): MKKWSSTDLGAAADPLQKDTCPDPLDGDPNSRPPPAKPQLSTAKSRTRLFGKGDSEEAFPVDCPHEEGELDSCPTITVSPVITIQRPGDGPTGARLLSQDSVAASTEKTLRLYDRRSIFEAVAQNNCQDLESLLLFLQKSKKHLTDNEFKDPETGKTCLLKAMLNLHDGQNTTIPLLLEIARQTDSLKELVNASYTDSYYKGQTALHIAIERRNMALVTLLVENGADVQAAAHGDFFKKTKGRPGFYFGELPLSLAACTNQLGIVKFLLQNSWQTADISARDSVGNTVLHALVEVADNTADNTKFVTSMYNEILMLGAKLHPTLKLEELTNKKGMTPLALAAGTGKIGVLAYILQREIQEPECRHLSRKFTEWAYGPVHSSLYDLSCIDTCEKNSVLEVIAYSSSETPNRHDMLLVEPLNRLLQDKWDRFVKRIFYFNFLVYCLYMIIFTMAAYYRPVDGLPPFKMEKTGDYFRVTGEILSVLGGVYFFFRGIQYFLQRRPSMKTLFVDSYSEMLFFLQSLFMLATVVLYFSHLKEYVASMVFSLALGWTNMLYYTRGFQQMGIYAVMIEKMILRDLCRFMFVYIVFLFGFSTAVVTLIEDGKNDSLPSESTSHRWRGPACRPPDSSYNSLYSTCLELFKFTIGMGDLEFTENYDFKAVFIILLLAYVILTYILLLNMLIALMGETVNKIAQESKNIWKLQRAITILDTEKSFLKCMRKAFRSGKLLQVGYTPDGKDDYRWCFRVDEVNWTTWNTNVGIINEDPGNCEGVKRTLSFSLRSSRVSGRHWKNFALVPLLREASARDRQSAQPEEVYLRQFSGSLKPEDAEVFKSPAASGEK
# T2 sequence (Q8NER1 whole entry): as above
# T1 sequence (O35433 whole entry): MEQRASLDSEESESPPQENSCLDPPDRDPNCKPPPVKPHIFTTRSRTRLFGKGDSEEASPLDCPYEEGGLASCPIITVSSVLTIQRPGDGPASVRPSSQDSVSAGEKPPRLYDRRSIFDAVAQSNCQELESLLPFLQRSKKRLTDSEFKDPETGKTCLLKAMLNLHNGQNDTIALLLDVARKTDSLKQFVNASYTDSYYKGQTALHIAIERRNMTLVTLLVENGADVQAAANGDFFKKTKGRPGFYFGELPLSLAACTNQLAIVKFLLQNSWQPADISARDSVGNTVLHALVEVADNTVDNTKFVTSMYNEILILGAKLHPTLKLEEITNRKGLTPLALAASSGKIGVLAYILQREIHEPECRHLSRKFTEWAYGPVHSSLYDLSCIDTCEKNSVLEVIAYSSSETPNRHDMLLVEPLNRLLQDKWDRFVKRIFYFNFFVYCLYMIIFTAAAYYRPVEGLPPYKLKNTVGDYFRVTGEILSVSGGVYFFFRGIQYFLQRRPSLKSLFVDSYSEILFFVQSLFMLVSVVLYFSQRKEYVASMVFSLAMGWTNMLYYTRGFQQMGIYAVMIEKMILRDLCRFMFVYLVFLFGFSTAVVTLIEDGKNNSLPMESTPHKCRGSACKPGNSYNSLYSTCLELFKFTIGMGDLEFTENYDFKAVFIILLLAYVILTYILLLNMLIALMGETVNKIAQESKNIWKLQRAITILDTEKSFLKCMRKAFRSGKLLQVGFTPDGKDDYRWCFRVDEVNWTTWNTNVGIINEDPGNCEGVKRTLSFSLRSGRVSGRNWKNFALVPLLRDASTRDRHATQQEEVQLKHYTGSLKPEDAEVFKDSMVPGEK
smiles,measurement,setting,value
"CCC1CCC(Oc2nc(C(F)(F)F)ccc2CNC(=O)C(C)c2ccc(NS(C)(=O)=O)c(F)c2)CC1 (centres unmarked) [Example 171, N-[2-(4-ethyl-cyclohexyloxy)-6-trifluoromethyl-pyridin-3-ylmethyl]-2-(3-fluoro-4-methylsulfonamido-phenyl)-propionamide]",inhibition in vivo at 0.3 mg/kg,[1]; [4],45%
same,inhibition in vivo at 0.3 mg/kg,[2]; mouse,32%
same,Ki,"[3]; Ki (rat) Cap., table 4, capsaicin",2.4 nM
same,Ki,vanilloid receptor (VR1); [5],4.8 nM
same,IC50,VR1/TRPV1 receptor; table 4,125 nM
CC(C(=O)NCc1ccc(C(F)(F)F)nc1OC1CCCCC1)c1ccc(NS(C)(=O)=O)c(F)c1 (centres unmarked) [Example 76],inhibition in vivo at 0.3 mg/kg,[1]; [4],12%
same,Ki,"[3]; Ki (rat), Table 2, displacement of capsaicin (100 nM), Cheng-Prusoff",1.5 nM
same,Ki,vanilloid receptor (VR1); [6],1.3 nM
same,IC50,VR1/TRPV1 receptor; Table 2,43.4 nM
"CC(C(=O)NCc1ccc(C(F)(F)Cl)nc1OCc1ccccn1)c1ccc(NS(C)(=O)=O)c(F)c1 (centres unmarked) [Example 182, N-[6-(chloro-difluoro-methyl)-2-(pyridin-2-ylmethoxy)-pyridin-3-ylmethyl]-2-(3-fluoro-4-methylsulfonamido-phenyl)-propionamide]",inhibition in vivo at 0.3 mg/kg,[1]; [4],1%
same,inhibition in vivo at 0.3 mg/kg,[2]; mouse,45%
same,Ki,[3]; [7],7.3 nM
same,Ki,vanilloid receptor (VR1); [5],4.2 nM
same,IC50,VR1/TRPV1 receptor; table 4,637 nM
"CC(C(=O)NCc1ccc(C(F)(F)F)nc1NCc1ccc(Cl)cc1)c1ccc(NS(C)(=O)=O)c(F)c1 (centres unmarked) [Example 173, N-[2-(4-chloro-benzylamino)-6-trifluoromethyl-pyridin-3-ylmethyl]-2-(3-fluoro-4-methylsulfonamido-phenyl)-propionamide]",inhibition in vivo at 0.3 mg/kg,[1]; [4],0%
same,inhibition in vivo at 0.3 mg/kg,[2]; mouse,36%
same,Ki,[3]; [7],78.4 nM
same,Ki,vanilloid receptor (VR1); [5],65.7 nM
same,IC50,VR1/TRPV1 receptor; table 4,414 nM
"CC(C)CCOc1nc(C(C)(C)C)ccc1CNC(=O)C(C)c1ccc(NS(C)(=O)=O)c(F)c1 (centres unmarked) [Example 329, N-[6-tert-butyl-2-(3-methyl-butoxy)-pyridin-3-ylmethyl]-2-(3-fluoro-4-methylsulfonamido-phenyl)-propionamide]",inhibition in vivo at 1 mg/kg,"[1]; 1 mg/kg body weight po, mouse",54%
same,inhibition in vivo at 1 mg/kg,"[2]; 1 mg/kg body weight po, mouse",7%
same,Ki,vanilloid receptor (VR1); [5],0.8 nM
same,IC50,VR1/TRPV1 receptor; table 4,179 nM
"CC(C(=O)NCc1ccc(C(F)(F)Cl)nc1OC1CCCC1)c1ccc(NS(C)(=O)=O)c(F)c1 (centres unmarked) [Example 166, N-[6-(chloro-difluoro-methyl)-2-cyclopentyloxy-pyridin-3-ylmethyl]-2-(3-fluoro-4-methylsulfonamido-phenyl)-propionamide]",inhibition in vivo at 0.3 mg/kg,[1]; [4],48%
same,inhibition in vivo at 0.3 mg/kg,[2]; mouse,28%
same,Ki,[3]; [7],1.1 nM
same,Ki,vanilloid receptor (VR1); [5],0.5 nM
same,IC50,VR1/TRPV1 receptor; table 4,18.5 nM
"CC(C(=O)NCc1ccc(C(F)(F)Cl)nc1N1CCCCC1)c1ccc(NS(C)(=O)=O)c(F)c1 (centres unmarked) [Example 71, N-((6-(chlorodiflouromethyl)-2-(piperidin-1-yl)pyridin-3-yl)methyl)-2-(3-fluoro-(4-methylsulfonamido)phenyl)propanamide]",inhibition formaldehyde test (n = 10),[1]; [4],0.3 po 0%
same,Ki,[3]; [8],0.8 nM
same,Ki,vanilloid receptor (VR1); [6],1.3 nM
same,IC50,VR1/TRPV1 receptor; Table 2,22.4 nM
CC(C(=O)NCc1ccc(C(F)(F)F)nc1OCCC(C)(C)C)c1ccc(NS(C)(=O)=O)c(F)c1 (centres unmarked) [Compound 125],inhibition in vivo at 1 mg/kg,"[1]; 1 mg/kg body weight po, mouse",19%
same,inhibition in vivo at 0.3 mg/kg,[2]; mouse,37%
same,inhibition in vivo at 1 mg/kg,"[2]; 1 mg/kg body weight po, mouse",32%
same,inhibition in vivo at 3 mg/kg,"[2]; 3 mg/kg body weight po, mouse",65%
COC1CCN(c2nc(C(F)(F)F)ccc2CNC(=O)C(C)c2ccc(NS(C)(=O)=O)c(F)c2)CC1 (centres unmarked) [Compound 159],inhibition in vivo at 1 mg/kg,"[1]; 1 mg/kg body weight po, mouse",14%
"CC(C(=O)NCc1ccc(C(F)(F)F)nc1OCCc1ccccc1)c1ccc(NS(C)(=O)=O)c(F)c1 (centres unmarked) [Example 178, 2-(3-fluoro-4-methylsulfonamido-phenyl)-N-(2-phenethyloxy-6-trifluoromethyl-pyridin-3-ylmethyl)-propionamide]",inhibition in vivo at 0.3 mg/kg,[1]; [4],16%
same,inhibition in vivo at 0.3 mg/kg,[2]; mouse,42%
same,Ki,[3]; [7],1.9 nM
CC(C(=O)NCc1ccc(C(F)(F)F)cc1N1CCCCCC1)c1ccc(NS(C)(=O)=O)c(F)c1 (centres unmarked) [Compound 174],inhibition in vivo at 1 mg/kg,"[1]; 1 mg/kg body weight po, mouse",49%
CC(C(=O)NCc1ccc(C(F)(F)F)nc1SC1CCCCC1)c1ccc(NS(C)(=O)=O)c(F)c1 (centres unmarked) [Compound 126],inhibition in vivo at 0.3 mg/kg,[1]; [4],69%
"CC(C(=O)NCc1ccc(C(F)(F)F)nc1-c1ccccc1F)c1ccc(NS(C)(=O)=O)c(F)c1 (centres unmarked) [Example 150, 2-(3-fluoro-4-methylsulfonamido-phenyl)-N-[2-(2-fluoro-phenyl)-6-trifluoromethyl-pyridin-3-ylmethyl]-propionamide]",inhibition in vivo at 0.3 mg/kg,[1]; [4],17%
same,Ki,[3]; [7],22.4 nM
same,Ki,vanilloid receptor (VR1); [5],63.3 nM
same,IC50,VR1/TRPV1 receptor; table 4,1320 nM
"CCCCOc1nc(C(F)(F)Cl)ccc1CNC(=O)C(C)c1ccc(NS(C)(=O)=O)c(F)c1 (centres unmarked) [Example 140, N-[2-butoxy-6-(chlor-difluor-methyl)-pyridin-3-ylmethyl]-2-(3-fluoro-4-methylsulfonamido-phenyl)-propionamide]",inhibition formaldehyde test (n = 10),[1]; [9],0.1 po 56%
same,Ki,[3]; [7],0.4 nM
same,Ki,vanilloid receptor (VR1); [5],0.7 nM
same,IC50,VR1/TRPV1 receptor; table 4,9.2 nM
CC(C(=O)NCc1ccc(C(F)(F)F)nc1N1CCC(N2CCCC2)CC1)c1ccc(NS(C)(=O)=O)c(F)c1 (centres unmarked) [Compound 165],inhibition in vivo at 1 mg/kg,"[1]; 1 mg/kg body weight po, mouse",15%
same,inhibition at 10 µM,"[3]; @ 10 μM, read-out: inhibition in percent, Ki (rat) Cap.",4%
same,inhibition at 10 µM,"vanilloid receptor (VR1); CHO-K1, @ 10 μM, read-out: inhibition in percent, Ki (human) Cap.",0.5%
CC(C(=S)NCc1ccc(C(F)(F)F)nc1-c1ccc(F)cc1)c1ccc(NS(C)(=O)=O)c(F)c1 (centres unmarked) [Compound 130],inhibition in vivo at 1 mg/kg,"[1]; 1 mg/kg body weight po, mouse",55%
CC(C(=O)NCc1ccc(C(F)(F)Cl)nc1OC1CCCC1)c1ccc(NS(C)(=O)=O)c(F)c1 (centres unmarked) [Compound 166],inhibition in vivo at 1 mg/kg,"[1]; 1 mg/kg body weight po, mouse",72%
Cc1cc(C(C)C(=O)NCc2ccc(C(F)(F)F)nc2N2CCCCC2)ccc1NS(C)(=O)=O (centres unmarked) [Compound 127],inhibition in vivo at 1 mg/kg,"[1]; 1 mg/kg body weight po, mouse",25%
"CC(C(=O)NCc1ccc(C(F)(F)F)nc1N1CCC(c2ccccc2)(N(C)C)CC1)c1ccc(NS(C)(=O)=O)c(F)c1 (centres unmarked) [Example 330, N-(4-dimethylamino-4-phenyl-6′-trifluoromethyl-3,4,5,6-tetrahydro-2H-[1,2′]bipyridinyl-3′-ylmethyl)-2-(3-fluoro-4-methylsulfonamido-phenyl)-propionamide]",inhibition in vivo at 1 mg/kg,"[1]; Mus musculus, po",54%
same,inhibition in vivo at 1 mg/kg,"[2]; Mus musculus, po",7%
"CC(C(=O)NCc1ccc(C(F)(F)F)cc1N1CCCC1)c1ccc(NS(C)(=O)=O)c(F)c1 (centres unmarked) [Example 34, 2-(3-fluoro-4-(methylsulfonamido)phenyl)-N-(2-(pyrrolidin-1-yl)-4-(trifluoromethyl)benzyl)propanamide]",inhibition in vivo at 0.1 mg/kg,[1]; [9],6%
same,Ki,[3]; [8],2.5 nM
same,Ki,vanilloid receptor (VR1); [6],2.3 nM
same,IC50,VR1/TRPV1 receptor; Table 2,121 nM
CC(C(=O)NCc1ccc(C(F)(F)F)nc1OCc1ccncc1)c1ccc(NS(C)(=O)=O)c(F)c1 (centres unmarked) [Compound 177],inhibition in vivo at 1 mg/kg,"[1]; 1 mg/kg body weight po, mouse",24%
same,inhibition at 0.1 µM,"[3]; read-out: inhibition in percent, Ki (rat) Cap.",9%
CC(C(=O)NCc1ccc(C(F)(F)F)cc1N1CCCCCCC1)c1ccc(NS(C)(=O)=O)c(F)c1 (centres unmarked) [Compound 217],inhibition in vivo at 1 mg/kg,"[1]; 1 mg/kg body weight po, mouse",37%
same,inhibition in vivo at 0.3 mg/kg,[2]; mouse,97%
CC(C(=O)NCc1ccc(C(F)(F)F)nc1-c1cccs1)c1ccc(NS(C)(=O)=O)c(F)c1 (centres unmarked) [Compound 88],inhibition in vivo at 1 mg/kg,"[1]; 1 mg/kg body weight po, mouse",16%
CCCCOc1cc(C(C)(C)C)ccc1CNC(=O)C(C)c1ccc(NS(C)(=O)=O)c(F)c1 (centres unmarked) [Compound 108],inhibition in vivo at 1 mg/kg,"[1]; 1 mg/kg body weight po, mouse",24%
CC(C(=O)NCc1ccc(C(F)(F)F)nc1-c1cccc(F)c1)c1ccc(NS(C)(=O)=O)c(F)c1 (centres unmarked) [Compound 148],inhibition in vivo at 1 mg/kg,"[1]; 1 mg/kg body weight po, mouse",46%
CC(C(=O)NCc1ccc(C(C)(C)C)nc1OC1CCCC1)c1ccc(NS(C)(=O)=O)c(F)c1 (centres unmarked) [Compound 234],inhibition in vivo at 0.1 mg/kg,[1]; [9],28%
same,inhibition in vivo at 0.3 mg/kg,[1]; [4],41%
same,inhibition in vivo at 1 mg/kg,"[1]; 1 mg/kg body weight po, mouse",44%
same,inhibition in vivo at 0.3 mg/kg,[2]; mouse,31%
CC(C(=O)NCc1ccc(C(F)(F)F)cc1N1CCCC1)c1ccc(NS(C)(=O)=O)c(F)c1 (centres unmarked) [Compound 34],inhibition in vivo at 0.3 mg/kg,[1]; [4],51%
